# PubChem BioAssay (NCI)
# Values joined by “and” are separate entries in the source; they are usually repeats but may differ in a detail not shown here. Equal entries are not always repeated.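 Five compound concentrations were applied to cells in 96-well plates for 48 hours; endpoints were derived by simple linear interpolation of the resulting dose-response curve. The concentration for 50% growth inhibition is given as GI50. Definition used: TGI = concentration required for complete inhibition of growth.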
# Columns and labels:
# Test in all cases: growth of human tumour cells (NCI), 48 h
# 786-0 renal = system: 786-0 renal
# A498 renal = system: A498 renal
# A549 NSCLC = system: A549 NSCLC
# ACHN renal = system: ACHN renal
# BT-549 breast = system: BT-549 breast
# CAKI-1 renal = system: CAKI-1 renal
# CCRF-CEM leukemia = system: CCRF-CEM leukemia
# COLO 205 colon = system: COLO 205 colon
# DU-145 prostate = system: DU-145 prostate
# EKVX NSCLC = system: EKVX NSCLC
# HCC-2998 colon = system: HCC-2998 colon
# HL-60(TB) leukemia = system: HL-60(TB) leukemia
# HS 578T breast = system: HS 578T breast
# HT29 colon = system: HT29 colon
# IGROV1 ovarian = system: IGROV1 ovarian
# KM12 colon = system: KM12 colon
# KM20L2 colon = system: KM20L2 colon
# LOX IMVI melanoma = system: LOX IMVI melanoma
# LXFL 529 NSCLC = system: LXFL 529 NSCLC
# M14 melanoma = system: M14 melanoma
# MALME-3M melanoma = system: MALME-3M melanoma
# MDA-MB-231 breast = system: MDA-MB-231 breast
# MDA-MB-435 = system: MDA-MB-435
# MDA-N = system: MDA-N
# MOLT-4 leukemia = system: MOLT-4 leukemia
# NCI-H226 lung = system: NCI-H226 lung
# NCI-H23 lung = system: NCI-H23 lung
# NCI-H460 lung = system: NCI-H460 lung
# NCI-H522 lung = system: NCI-H522 lung
# NCI/ADR-RES ovarian = system: NCI/ADR-RES ovarian
# OVCAR-3 ovarian = system: OVCAR-3 ovarian
# OVCAR-4 ovarian = system: OVCAR-4 ovarian
# OVCAR-5 ovarian = system: OVCAR-5 ovarian
# PC-3 prostate = system: PC-3 prostate
# RPMI-8226 leukemia = system: RPMI-8226 leukemia
# RXF 393 renal = system: RXF 393 renal
# SF-268 CNS = system: SF-268 CNS
# SF-295 CNS = system: SF-295 CNS
# SF-539 CNS = system: SF-539 CNS
# SK-MEL-28 melanoma = system: SK-MEL-28 melanoma
# SK-MEL-5 melanoma = system: SK-MEL-5 melanoma
# SK-OV-3 ovarian = system: SK-OV-3 ovarian
# SN12C renal = system: SN12C renal
# SNB-19 CNS = system: SNB-19 CNS
# SNB-75 CNS = system: SNB-75 CNS
# SNB-78 CNS = system: SNB-78 CNS
# SR leukemia = system: SR leukemia
# SW-620 colon = system: SW-620 colon
# TK-10 renal = system: TK-10 renal
# U251 CNS = system: U251 CNS
# UACC-257 melanoma = system: UACC-257 melanoma
# UACC-62 melanoma = system: UACC-62 melanoma
# XF 498 CNS = system: XF 498 CNS
smiles,measurement,setting,value
COc1cccc2c1C(CO)N1C(C#N)C3CC(C(=O)O)C(C1C2)N3C (stereo unspecified),GI50,786-0 renal,236 nM
same,TGI,786-0 renal,3800 nM and 757 nM
same,GI50,A498 renal,304 nM
same,GI50,A549 NSCLC,4740 nM
same,GI50,ACHN renal,294 nM
same,TGI,BT-549 breast,739 nM and 1940 nM
same,GI50,CAKI-1 renal,404 nM
same,GI50,CCRF-CEM leukemia,87.7 nM
same,TGI,CCRF-CEM leukemia,8550 nM and > 17000 nM
same,GI50,COLO 205 colon,112 nM
same,TGI,COLO 205 colon,2660 nM and 1200 nM
same,GI50,DU-145 prostate,365 nM
same,TGI,DU-145 prostate,> 100000 nM
same,GI50,EKVX NSCLC,734 nM
same,TGI,EKVX NSCLC,10600 nM
same,GI50,HCC-2998 colon,3140 nM
same,TGI,HCC-2998 colon,8210 nM and 2780 nM
same,GI50,HL-60(TB) leukemia,239 nM
same,TGI,HL-60(TB) leukemia,4530 nM and 811 nM
same,GI50,HS 578T breast,538 nM
same,TGI,HS 578T breast,3080 nM
same,TGI,HT29 colon,6550 nM
same,TGI,IGROV1 ovarian,9670 nM and 4640 nM
same,GI50,KM12 colon,679 nM
same,TGI,KM12 colon,8300 nM and > 26000 nM
same,GI50,KM20L2 colon,207 nM
same,GI50,LOX IMVI melanoma,254 nM
same,TGI,LXFL 529 NSCLC,6670 nM
same,GI50,M14 melanoma,363 nM
same,TGI,M14 melanoma,6910 nM and 1420 nM
same,GI50,MALME-3M melanoma,458 nM
same,TGI,MALME-3M melanoma,4600 nM and 1230 nM
same,GI50,MDA-MB-231 breast,271 nM
same,TGI,MDA-MB-231 breast,933 nM and 521 nM
same,GI50,MDA-MB-435,168 nM
same,TGI,MDA-N,635 nM and 2250 nM
same,GI50,MOLT-4 leukemia,93.4 nM
same,GI50,NCI-H226 lung,2470 nM and 327 nM
same,TGI,NCI-H226 lung,5380 nM and 1230 nM
same,GI50,NCI-H23 lung,222 nM
same,TGI,NCI-H23 lung,4420 nM and 558 nM
same,GI50,NCI-H460 lung,1240 nM
same,GI50,NCI-H522 lung,238 nM
same,TGI,NCI-H522 lung,874 nM and 389 nM
same,GI50,NCI/ADR-RES ovarian,194 nM
same,TGI,NCI/ADR-RES ovarian,549 nM and 1120 nM
same,GI50,OVCAR-3 ovarian,305 nM
same,GI50,OVCAR-4 ovarian,705 nM
same,TGI,OVCAR-4 ovarian,27000 nM
same,GI50,OVCAR-5 ovarian,183 nM
same,GI50,PC-3 prostate,462 nM
same,TGI,PC-3 prostate,> 100000 nM
same,GI50,RPMI-8226 leukemia,63.7 nM
same,TGI,RPMI-8226 leukemia,3940 nM and 1540 nM
same,GI50,RXF 393 renal,203 nM
same,TGI,RXF 393 renal,1850 nM and 571 nM
same,GI50,SF-268 CNS,313 nM
same,TGI,SF-268 CNS,8750 nM and 57300 nM
same,GI50,SF-295 CNS,420 nM
same,TGI,SF-295 CNS,27200 nM
same,GI50,SF-539 CNS,195 nM
same,TGI,SF-539 CNS,3110 nM and 1020 nM
same,GI50,SK-MEL-28 melanoma,391 nM
same,TGI,SK-MEL-28 melanoma,3830 nM and 1880 nM
same,GI50,SK-MEL-5 melanoma,383 nM
same,TGI,SK-MEL-5 melanoma,4070 nM and 985 nM
same,GI50,SK-OV-3 ovarian,2600 nM
same,TGI,SK-OV-3 ovarian,8340 nM and > 31100 nM
same,GI50,SN12C renal,373 nM
same,TGI,SN12C renal,8340 nM and > 17800 nM
same,GI50,SNB-19 CNS,212 nM
same,TGI,SNB-19 CNS,> 15500 nM
same,GI50,SNB-75 CNS,298 nM
same,TGI,SNB-75 CNS,5420 nM and 1990 nM
same,GI50,SNB-78 CNS,334 nM
same,TGI,SNB-78 CNS,7970 nM and 12000 nM
same,GI50,SR leukemia,30.8 nM
same,TGI,SR leukemia,7200 nM
same,GI50,SW-620 colon,467 nM
same,TGI,TK-10 renal,9270 nM
same,GI50,U251 CNS,78.7 nM
same,GI50,UACC-257 melanoma,331 nM
same,TGI,UACC-257 melanoma,3960 nM and 2110 nM
same,GI50,UACC-62 melanoma,192 nM
same,TGI,UACC-62 melanoma,2230 nM and 452 nM
same,GI50,XF 498 CNS,1790 nM
